These results are taken from US20100197584A1, “USE OF CURCUMIN TO BLOCK BRAIN TUMOR FORMATION IN MICE” (Research Foundations of the City University of- New York, priority 2007, published 2010).

The structures appear in SMILES notation.

Data set [1] deals with B16F10 (mouse melanoma) cells. Description: Caspase-3/7 assay in B16F10 cells. It counts as cell-based. The conditions noted are these: 20 μM and 50 μM, 48 h or 96 h (FIG. 1). Here is the method: (§1) Cells. B16F10 (mouse melanoma), GL261 (mouse glioma), HOG (human oligodendroglioma), A549 (human lung cancer), and […] (mouse neuroblastoma) cells were cultured separately in DMEM containing 10% (v/v) fetal bovine serum and 1% (v/v) penicillin-streptomycin (PS) and allowed to grow to 40% confluence in a 96-well plate. Curcumin Treatment. Two hours before drug treatment, the medium in each well was replaced with 200 μl Neurobasal medium supplemented with 2% (v/v) B27 and 1% (v/v) PS (Drug-treatment Medium). A stock solution (40 mM) of curcumin was prepared in sterile dimethyl sulfoxide (DMSO) (Example 1). Through serial dilution of each stock solution in Drug-treatment Medium, the following concentrations were obtained: 20 μM and 50 μM (for caspase 3/7 assays) or 25 μM and 50 μM (for MTT assays). Drug-treatment Medium in each well was aspirated, and a drug solution of each concentration or carrier-containing medium (control) was added to triplicate wells of cells (50 μl/well). […] Additionally, the background absorbance was determined from parallel wells containing only the Drug-treatment Medium plus a particular concentration of the drug (no cells). […] Fluorescence in each well was measured using the FLx 800 plate reader (Bio-Tek Instruments, Winooski, Vt.) set at 485/20 nm excitation and 528/20 nm emission wavelengths and the sensitivity of 70. […]

For data set [2], the system named is N18 (mouse neuroblastoma) cells. The experiment in a line: Caspase-3/7 assay in N18 cells. The conditions noted are these: 20 μM and 50 μM, 48 h or 96 h (FIG. 2). It counts as cell-based. On the procedure: as §1
For data set [3], the system named is GL261 (mouse glioma) cells. The experiment in a line: Caspase-3/7 assay in GL261 cells. It counts as cell-based. The conditions noted are these: 20 μM and 50 μM, 48 h (FIG. 4). On the procedure: as §1
Data set [4] has as its system HOG (human oligodendroglioma) cells. Description: Cell viability assay using MTT, HOG. It counts as cell-based. As to conditions: 25 μM and 50 μM, 48 h or 96 h, versus control cells (FIG. 6e). On the procedure:
Cells. B16F10 (mouse melanoma), GL261 (mouse glioma), HOG (human oligodendroglioma), A549 (human lung cancer), and N18 (mouse neuroblastoma) cells were cultured separately in DMEM containing 10% (v/v) fetal bovine serum and 1% (v/v) penicillin-streptomycin (PS) and allowed to grow to 40% confluence in a 96-well plate.
Curcumin Treatment. Two hours before drug treatment, the medium in each well was replaced with 200 μl Neurobasal medium supplemented with 2% (v/v) B27 and 1% (v/v) PS (Drug-treatment Medium). A stock solution (40 mM) of curcumin was prepared in sterile dimethyl sulfoxide (DMSO) (Example 1). Through serial dilution of each stock solution in Drug-treatment Medium, the following concentrations were obtained: 20 μM and 50 μM (for caspase 3/7 assays) or 25 μM and 50 μM (for MTT assays). […] Additionally, the background absorbance was determined from parallel wells containing only the Drug-treatment Medium plus a particular concentration of the drug (no cells).
Cell Viability Assay Using MTT (3-(4,5-Dimethylthiazolyl-2)-2,5-Diphenyltetrazolium Bromide). […] Absorbance was measured at 570 nm using a 96-well multi scanner auto-reader with the extraction buffer used as blank. For curcumin samples, the absorbance obtained from the corresponding curcumin plus medium samples was subtracted.

Data set [5] is described as follows: Permeability of the blood-brain barrier to curcumin (HPLC of brain after tail vein injection). The format is in vivo, mouse. Here is the method: A curcumin solution (200 μl of 667 μM curcumin in PBS containing 3% DMSO) was injected through the tail vein of each mouse, the mice were sacrificed after 15 min, 30 min, and 2 hours, and brain regions (forebrain, hippocampus, and hypothalamus) as well as blood were collected for analysis. Each tissue fraction was diluted into 300 μl of water, homogenized, and then diluted with 700 μl of acetonitrile. Proteins and other insoluble substances were separated by centrifugation at 8000 rpm in a table-top Eppendorf microcentrifuge, and the supernatants were transferred to fresh tubes and then evaporated by blowing in nitrogen gas. The blood (100 μl) was diluted with 40 μl EDTA (500 mM) and 160 μl of water. This mixture was diluted with 700 μl of actonitrile, vortexed, protein and debris separated by centrifugation and then the supernatant evaporated under nitrogen. The residues obtained were dissolved in 50 μl of acetonitrile:water (70:30) and 30 μl of this solution injected for HPLC analysis on a C18 reverse-phase column. A standard 0.1 mM solution of curcumin dissolved in acetonitrile:water (70:30) was injected for comparison. The mobile phase was a 30-70% gradient of acetonitrile in water containing 0.1% trifluoroacetic acid (TFA). Curcumin eluted as a closely spaced triplet with the strongest peak eluting at 12.8 min.

The test system of data set [6] is human pancreatic carcinoma cell lines. As to conditions: human pancreatic carcinoma cell lines (Li et al. 2004); cited from earlier work.
Another data set has as its system rat glioma cells. As to conditions: rat glioma cells in vitro (Karmakar 2006; Dhandapani 2007); cited from earlier work.

As to `COc1cc(/C=C/C(=O)CC(=O)/C=C/c2ccc(O)c(OC)c2)ccc1O` [curcumin], the caspase-3/7 activity result in data set [1], in data set [2] and in data set [3] was “increased” throughout. In addition, in data set [4], the “cell viability (MTT)” value is given as “dramatic decrease”. Also, the “curcumin in mouse brain (HPLC trace)” value in data set [5] (15 minutes after tail vein injection of 200 μl of 667 μM curcumin (FIG. 7b)) and in data set [5] (30 minutes after tail vein injection of 200 μl of 667 μM curcumin (FIG. 7c)) was “presence of curcumin” in each case. In addition, in data set [5] (mouse brain, after tail vein injection of 200 μl of 667 μM curcumin (FIG. 7d)), the “time by which curcumin was completely metabolized” value was at most 2 h. Also, the apoptosis result in data set [6] is on record as “induces apoptosis”; with rat glioma cells, “triggers apoptosis”.
